According to patent US11518973B2, “Device and method for automated antibiotic susceptibility testing of gram-negative bacteria” (Yellow Sea Fisheries Research Institute Chinese Academy Of …, priority 2018, dated 2022):
Converted amounts (≈) assume the structure as drawn.

Experiments:
[1] = tested on: Dysentery Bacillus; assay: AST assay of levofloxacin by contactless conductivity (ΔC) monitoring of bacterial growth; format: cell-based, Dysentery Bacillus (Enterobacteriaceae strain)
Procedure: f. Judging the bacterial cells proliferation result based on the ΔCs at the final point. The ΔC is equal to or larger than 10.0 μS/cm, indicating a proliferation; and ΔC is equal to or lower than 1.0 μS/cm, indicating a completely inhibition. The MIC is defined as the lowest concentration of antibiotic resulting in complete inhibition of growth.
Step 1: According to FIG. 1, an automated device with eight test channels is set up. An HtPot50 dry incubator, which is produced by ABSON Scientific Instruments Co. (Hefei, China), is used as a temperature control unit. The used 0.22 μm disposable syringe filter is produced by Zhejiang Aijiren INC (Quzhou, China). The actuator electrode A, pick-up electrode L and pick-up electrode S are all copper cylinders in external diameter of 4.00 mm with 0.95 mm wall thickness. Their lengths are 16 mm, 16 mm and 10 mm, respectively. In every test channel the three electrodes are coaxially fixed with fixing plate. The distance between the pick-up electrode L and pick-up electrode S is 5 mm; and the distance between the pick-up electrode S and the actuator electrode A is 10 mm. All of the electrodes of the eight test channels are linked to an ER815 capacitively coupled contactless conductivity detector (eDAQ Ltd, Australia). The capacitively coupled contactless conductivity detector is controlled with TERA TERM software installed in E470c laptop computer (Legend Holdings Corporation, China).
Step 2: The temperature in the constant temperature chamber (6) is set to be 36° C. with a nonidentity ≤0.5° C. by clicking the button of temperature control.
Step 3: Involved hardware, containers, tools, consumables and special liquid medium for Enterobacteriaceae are sterilized with high temperature steam (121° C.), following by cooling down to room temperature in sterile vessels. In the special liquid medium the concentrations of beef powder, proteose peptone, lactose, No. 3 bile salt, sodium citrate, sodium thiosulfate and ferric citrate are 5.0, 5.0, 10.0, 8.5, 8.5, 8.5 and 1.0 g/L, respectively. […]

[2] = tested on: Helicobacter pylori; assay: Synergetic effect of levofloxacin and clarithromycin by contactless conductivity (ΔC) monitoring of bacterial growth; format: cell-based; conditions: indicates growth
Procedure: Step 3: Involved hardware, containers, tools, consumables and special liquid medium for Helicobacter pylori are sterilized with high temperature steam (121° C.), following by cooling down to room temperature in sterile vessels. The special liquid medium is purchased from Qingdao Hope Bio-Technology Co., Ltd (Qingdao, China).
Step 4: Levofloxacin solutions at concentrations of 0.2, 0.4, 0.6 and 0.8 g/l are prepared with ultrapure sterile water. Clarithromycin solutions at concentrations of 0.2, 0.4, 0.6 and 0.8 g/l are prepared with ethyl alcohol.
Step 5: Eight milliliter sterilized special liquid medium for Helicobacter pylori is transferred into a 10 ml centrifuge tube with a pipette.
Step 6: Twelve well-definite bacterial colonies are transferred from inoculating dish, on which Helicobacter pylori is cultured for 18-20 h, into the 10 ml centrifuge tube to prepare bacterial suspension.
Step 7: One-end-closed disposable PVC tubes in length of 12 cm are used as test tubes (5). […]

| Compound | MIC ([1]; Bacillus, lowest concentration with complete inhibition of growth (ΔC not more than 1.0 μS/cm), 36° C., 21600 s) | ΔC at the end of incubation ([1]; levofloxacin 0.25, 0.50 and 1.00 mg/l (tubes No. 1-3), indicates growth) | ΔC at the end of incubation ([1]; levofloxacin 2.00, 3.00, 4.00, 5.00 and 6.00 mg/l (tubes No. 4-8), growth completely inhibited) | ΔC at the end of incubation ([2]; levofloxacin alone 0.10, 0.20, 0.30 and 0.40 mg/l (tubes No. 1-4)) | ΔC at the end of incubation ([2]; clarithromycin alone 0.10, 0.20, 0.30 and 0.40 mg/l (tubes No. 1-4, Step 12)) |
| --- | --- | --- | --- | --- | --- |
| C[C@H]1COc2c(N3CCN(C)CC3)c(F)cc3c(=O)c(C(=O)O)cn1c23 [levofloxacin] | 2 µg/mL (≈ 5.53 µM) | ≥ 18.0 μS/cm | not more than 1.0 μS/cm | ≥ 22.0 μS/cm |  |
| CC[C@H]1OC(=O)[C@H](C)[C@@H](O[C@H]2C[C@@](C)(OC)[C@@H](O)[C@H](C)O2)[C@H](C)[C@@H](O[C@@H]2O[C@H](C)C[C@H](N(C)C)[C@H]2O)[C@](C)(OC)C[C@@H](C)C(=O)[C@H](C)[C@@H](O)[C@]1(C)O [clarithromycin] |  |  |  |  | ≥ 14.0 μS/cm |
